Measured values as given in patent publication US20070027215A1, “Nuclear receptor ligands and ligand binding domains” (The Regents of the University of California, priority 1995, published 2007).
Read-outs that look alike come from different tables or passages of the source.

How the values were obtained:
[1] = system: thyroid hormone receptors (TRs); test: CAT reporter gene activation in cultured cells; assay type: cell-based; details: U-937
Method: To test TR activation of transcription in a cellular environment, TR ligands are assayed for their ability to activate a reporter gene, chloramphenicol transferase (“CAT”), which has a TR DNA binding sequence operatively linked to it. Either GC or […] cells (available from the ATCC) can be used, respectively). In such assays, a TR ligand crosses the cell membrane, binds to the TR, and activates the TR, which in turn activates gene transcription of the CAT by binding the TR DNA binding region upstream of the CAT gene. The effective concentration for half maximal gene activation (EC50) is determined by assaying CAT gene activation at various concentrations as described herein and in the literature.
After electroporation, cells are pooled in growth medium (RPMI with 10% charcoal-treated, hormone stripped, newborn bovine serum), plated in 6-well dishes and treated with either ethanol or hormone. CAT activity is determined 24 hours later as described D. C. Leitman, R. C.

TR [2] = details: cited from earlier work
TR binding to RIP-140 = test: RIP-140 coactivation assay (35S-RIP-140 binding to liganded TR); assay type: biochemical; set-up: key: +: RIP-140 Binding; −: RIP-140 Binding
Method: To test the ability of TR ligands to activate the binding of TR to the nuclear activation protein RIP-140 (a nuclear protein that can bind to nuclear receptors, such as the estrogen receptor), a TR ligand is liganded to TR and then incubated with RIP-140 as described in V. Cavailles, et al., EMBO J., 14(15):3741-3751 (1995), which is incorporated by reference herein. In this assay, 35S-RIP-140 protein binds to liganded TR but not unliganded TR.

TR-α = molecular target: T1, TR-α (Homo sapiens, UniProt P10827); test: Binding to TR isoform TR-α
T1 sequence (P10827 1-410 isoform P10827-2): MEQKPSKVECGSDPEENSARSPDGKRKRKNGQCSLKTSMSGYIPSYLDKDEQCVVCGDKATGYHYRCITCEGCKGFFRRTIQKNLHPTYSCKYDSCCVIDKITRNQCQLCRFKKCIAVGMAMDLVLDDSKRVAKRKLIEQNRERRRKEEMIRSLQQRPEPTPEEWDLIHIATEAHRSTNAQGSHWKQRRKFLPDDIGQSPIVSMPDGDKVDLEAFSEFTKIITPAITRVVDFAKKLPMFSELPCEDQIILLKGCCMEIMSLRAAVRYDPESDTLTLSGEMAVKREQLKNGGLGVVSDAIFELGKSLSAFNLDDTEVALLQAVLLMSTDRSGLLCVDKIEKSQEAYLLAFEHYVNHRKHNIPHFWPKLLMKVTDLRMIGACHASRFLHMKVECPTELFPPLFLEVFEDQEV
Text: Assays for determining selective binding to the TR-α or TR-β LBD can include reporter assays, as described herein.

TR-β = molecular target: T2, TR-β (Homo sapiens, UniProt P10828); test: Binding to TR isoform TR-β
T2 sequence (P10828 1-461): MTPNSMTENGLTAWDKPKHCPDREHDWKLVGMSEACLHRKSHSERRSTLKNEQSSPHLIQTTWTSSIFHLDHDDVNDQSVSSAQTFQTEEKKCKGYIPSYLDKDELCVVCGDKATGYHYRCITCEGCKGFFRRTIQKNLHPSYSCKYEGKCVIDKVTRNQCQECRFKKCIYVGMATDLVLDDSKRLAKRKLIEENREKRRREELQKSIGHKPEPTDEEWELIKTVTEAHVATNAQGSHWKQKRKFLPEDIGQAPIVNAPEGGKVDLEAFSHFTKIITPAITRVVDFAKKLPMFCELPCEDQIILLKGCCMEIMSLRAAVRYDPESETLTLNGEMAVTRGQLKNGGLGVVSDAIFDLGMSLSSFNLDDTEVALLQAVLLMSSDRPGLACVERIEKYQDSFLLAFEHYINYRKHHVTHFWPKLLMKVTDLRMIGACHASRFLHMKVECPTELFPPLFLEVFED
Method: 3,5-dibromo-4-(3′,5′-diisopropyl-4′-hydroxyphenoxy)Benzoic Acid is a TR-α Selective Synthetic Ligand. [drawing 4] 3,5-dibromo-4-(3′,5′-diisopropyl-4′-hydroxyphenoxy)benzoic acid (Compound 11), the structure of which is drawn above, is assayed for binding to the two different isoforms of the TR, TR-α and TR-β. […] Assays for determining selective binding to the TR-α or TR-β LBD can include reporter assays, as described herein. See also Hollenberg, et al., J. Biol. Chem., (1995) 270(24):14274-14280.

thyroid receptor (TR) = test: Receptor binding assay with TR from rat liver nuclei and [125I]T3; details: TR from rat liver nuclei, 1 nM [125I]T3, overnight at 4° C.; read-out: App.Kd
Method: Baxter, and […]. […] The apparent Kd's are calculated using the method described by […]

human TR-α LBD = molecular target: T3, human TR-α LBD (Homo sapiens, UniProt P10827); test: Competition for [125I]T3 binding, native TR-α; details: read-out: Binding Affinity, Native TR-α; competition with 1 nM [125I]T3
T3 sequence (P10827 163-410 isoform P10827-2 limits assumed): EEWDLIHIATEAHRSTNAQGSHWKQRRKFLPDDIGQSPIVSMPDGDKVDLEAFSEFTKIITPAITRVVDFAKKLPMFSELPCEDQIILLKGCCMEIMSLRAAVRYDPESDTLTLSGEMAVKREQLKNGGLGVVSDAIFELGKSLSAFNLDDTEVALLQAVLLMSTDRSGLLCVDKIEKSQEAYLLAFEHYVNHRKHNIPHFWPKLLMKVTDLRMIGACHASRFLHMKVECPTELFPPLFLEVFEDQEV

human TR-β LBD = molecular target: T4, human TR-β LBD (Homo sapiens, UniProt P10828); test: Competition for [125I]T3 binding, native TR-β; details: read-out: Binding Affinity, Native TR-β
T4 sequence (P10828 217-461 limits assumed): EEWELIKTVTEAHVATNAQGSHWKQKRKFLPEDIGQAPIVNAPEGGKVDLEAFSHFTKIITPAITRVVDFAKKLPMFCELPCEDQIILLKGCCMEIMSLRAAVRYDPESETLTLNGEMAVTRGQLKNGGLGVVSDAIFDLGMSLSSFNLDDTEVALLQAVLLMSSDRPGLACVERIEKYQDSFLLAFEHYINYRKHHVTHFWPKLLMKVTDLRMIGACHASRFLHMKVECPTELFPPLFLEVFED
Method: Assays are performed in duplicate.
The following assays residues involved in selective binding among TR isoforms.

TR [3] = test: Receptor binding affinity stated in the structure discussion
[4] = half maximal CAT gene activation, GC or U937 cells, read-out: EC50

| EC50 [1, 4] | Coactivation Assay RIP-140 (TR binding to RIP-140) | Kd (thyroid receptor (TR)) | SMILES | also measured |
| --- | --- | --- | --- | --- |
| 1 nM | + | – | N[C@@H](Cc1cc(I)c(Oc2cc(I)c(O)c(I)c2)c(I)c1)C(=O)O [Compound T4, 3,5,3′,5′-tetraiodo-L-thyronine, reference compound] | affinity for the receptor as % of the affinity of T3 (TR [2]): 2% |
| – | – | – | CC(C)c1cc(Oc2c(Br)cc(C(=O)O)cc2Br)cc(C(C)C)c1O [Compound 11, 3,5-dibromo-4-(3′,5′-diisopropyl-4′-hydroxyphenoxy)benzoic acid] | IC50 (TR-α): 1600 nM; IC50 (TR-β): 910 nM |
| 10 nM | + | 4 nM | O=C(N[C@@H](Cc1cc(I)c(Oc2ccc(O)c(I)c2)c(I)c1)C(=O)O)OCC1c2ccccc2-c2ccccc21 [TS3] | – |
| – | + | 8 nM | CC(C)(C)OC(=O)N[C@@H](Cc1cc(I)c(Oc2ccc(O)c(I)c2)c(I)c1)C(=O)O [TS4] | – |
| – | – | – | CC(C)c1cc(Oc2c(Br)cc(C[C@H](N)C(=O)O)cc2Br)ccc1O [IpBr2, 3,5-dibromo-3′-isopropylthyronine] | Kd (human TR-α LBD): 0.017 nM |
| 1000 nM | + | 220 nM | CC(C)(C)OC(=O)NC(Cc1cc(I)c(Oc2ccc(O)cc2)c(I)c1)C(=O)O (stereo not shown) [TS5] | – |
| – | – | – | Cc1cc(C[C@H](N)C(=O)O)cc(C)c1Oc1ccc(O)c(C(C)C)c1 [Dimit, 3,5-dimethyl-3′-isopropylthyronine] | Kd (human TR-α LBD): 6 nM; Kd (human TR-β LBD): 8 nM |
| – | + | – | CC(C)c1cc(Oc2c(I)cc(CC(N)C(=O)O)cc2I)ccc1O (stereo not shown) [TS9, reference compound] | – |
| – | – | – | O=C(O)Cc1cc(I)c(Oc2ccc(O)c(I)c2)c(I)c1 [Triac, 3,5,3′-triiodothyroacetic acid] | affinity for the alpha versus beta isoforms (TR [3]): equal affinity; binding affinity compared with T3 (TR [2]): equal to that of T3 |
| 100 nM | + | 4 nM | O=C(N[C@@H](Cc1cc(I)c(Oc2ccc(O)c(I)c2)c(I)c1)C(=O)O)C(c1ccccc1)c1ccccc1 [TS1] | – |
| – | – | 1400 nM | CCCCCCCCCCCCCCCCC(=O)N[C@@H](Cc1cc(I)c(Oc2ccc(O)c(I)c2)c(I)c1)C(=O)O [TS2] | – |

| SMILES | EC50 [1, 4] | Coactivation Assay RIP-140 (TR binding to RIP-140) | Kd (thyroid receptor (TR)) | also measured |
| --- | --- | --- | --- | --- |
| N[C@@H](Cc1cc(I)c(Oc2ccc(O)c(I)c2)c(I)c1)C(=O)O [Compound T3, 3,5,3′-triiodothyronine, reference compound] | – | + | – | EC50 [1]: 0.1 nM |
